“Also recorded” adds a separate entry of the source. Where two headings read alike, the source gives them in different places.
Assays:
[1] = tested on: PBEF gene expression in WISH cells; assay: PBEF gene expression in IL-1β-stimulated WISH cells with inhibitors, real-time PCR; assay type: cell-based, human; details: IL-1β 1 ng/ml; for effect on IL-1β-induced up-regulation of PBEF: inhibitor over a range of dilutions
Method: (§1) Thus, the human anmiotic epithelial-like cell line (WISH) was stimultated by addition of IL-1β (1 ng/ml) or by stretching (20%). In order to show any inhibitory effects on the expression of PBEF, a panel of inhibitors (SN50, Curcumin and PDTC) were added over a range of dilutions to both systems. Gene expression was quantitated by real-time PCR and normalized to 18 s.

[2] = tested on: PBEF gene expression; details: Ognjanovic et al., cited from earlier work
[3] = tested on: IL-6; details: Keelan et al.; cited from earlier work
[4] = tested on: IL-8; details: Keelan et al.; Laham et al.; cited from earlier work
[5] = tested on: NF-κB; assay: NF-κB translocation in WISH cells, anti-p65 immunolabeling; assay type: cell-based, human; details: after addition of IL-1β
Method: as §1
Peak translocation of NF-κB from the cytoplasm to the nucleus occurred one hour after addition of IL-1β and was clearly seen by immunolabeling with an antibody (anti-p65) to one of the subunits of NF-κB. Increased PBEF gene expression also resulted from IL-1β stimulation.

Compound | effect on IL-1β-induced up-regulation of PBEF [1] | PBEF gene expression / transcription [2] | IL-6 transcription [3] | IL-8 transcription [4] | other results
COc1cc(/C=C/C(=O)CC(=O)/C=C/c2ccc(O)c(OC)c2)ccc1O [Curcumin] | prevented the up-regulation of PBEF to varying degrees |  |  |  | 
S=C(S)N1CCCC1 [PDTC] | prevented the up-regulation of PBEF to varying degrees |  |  |  | 
IL-1β: proinflammatory cytokine interleukin-1-beta |  | stimulate; also recorded: induced | stimulate | stimulate | PBEF gene expression after stimulation [1]: Increased; time of peak translocation of NF-κB from the cytoplasm to the nucleus [5]: one hour
IL-6: cytokine interleukin-6 |  | induced |  |  | 
IL-8: cytokine interleukin-8 |  | no such effect |  |  | 
TNF-α |  | induced | stimulate | stimulate | PBEF gene expression / transcription ([2]; listed as TNF-A): stimulate

Reference: patent US20050260683A1, “Methods for diagnosing and treating pre-term labor” (University of Hawaii, priority 2002, published 2005)
